Measured values as given in patent US20110009447A1, “Substituted Benzoic Acid Amides and Use thereof for the Inhibition of Angiogenesis” (priority 2001, published 2011).
pIC50: −log10 of the molar value.

target: VEGFR I (FLT) (Homo sapiens, UniProt P17948); experiment: Inhibition of FLT-1 kinase activity (33P-ATP, poly-(Glu4Tyr) phosphocellulose filter assay); assay type: biochemical; conditions: not given
Procedure: (§1) • Stock solutions • Stock solution A: 3 mmol of ATP in water, pH 7.0 (−70° C.) • Stock solution B: g-33P-ATP 1 mCi/100 μl • Stock solution C: poly-(Glu4Tyr) 10 mg/ml in water Solution for dilutions • Substrate solvent: 10 mmol of DTT, 10 mmol of manganese chloride, 100 mmol of magnesium chloride • Enzyme solution: 120 mmol of tris/HCl, pH 7.5, 10 μM of sodium vanadium oxide
Then, it is washed several times in 0.1 M phosphoric acid. The filter paper is dried, coated with Meltilex and measured in a microbeta counter.

VEGFR I (FLT), sequence (P17948 27-1338, species assumed): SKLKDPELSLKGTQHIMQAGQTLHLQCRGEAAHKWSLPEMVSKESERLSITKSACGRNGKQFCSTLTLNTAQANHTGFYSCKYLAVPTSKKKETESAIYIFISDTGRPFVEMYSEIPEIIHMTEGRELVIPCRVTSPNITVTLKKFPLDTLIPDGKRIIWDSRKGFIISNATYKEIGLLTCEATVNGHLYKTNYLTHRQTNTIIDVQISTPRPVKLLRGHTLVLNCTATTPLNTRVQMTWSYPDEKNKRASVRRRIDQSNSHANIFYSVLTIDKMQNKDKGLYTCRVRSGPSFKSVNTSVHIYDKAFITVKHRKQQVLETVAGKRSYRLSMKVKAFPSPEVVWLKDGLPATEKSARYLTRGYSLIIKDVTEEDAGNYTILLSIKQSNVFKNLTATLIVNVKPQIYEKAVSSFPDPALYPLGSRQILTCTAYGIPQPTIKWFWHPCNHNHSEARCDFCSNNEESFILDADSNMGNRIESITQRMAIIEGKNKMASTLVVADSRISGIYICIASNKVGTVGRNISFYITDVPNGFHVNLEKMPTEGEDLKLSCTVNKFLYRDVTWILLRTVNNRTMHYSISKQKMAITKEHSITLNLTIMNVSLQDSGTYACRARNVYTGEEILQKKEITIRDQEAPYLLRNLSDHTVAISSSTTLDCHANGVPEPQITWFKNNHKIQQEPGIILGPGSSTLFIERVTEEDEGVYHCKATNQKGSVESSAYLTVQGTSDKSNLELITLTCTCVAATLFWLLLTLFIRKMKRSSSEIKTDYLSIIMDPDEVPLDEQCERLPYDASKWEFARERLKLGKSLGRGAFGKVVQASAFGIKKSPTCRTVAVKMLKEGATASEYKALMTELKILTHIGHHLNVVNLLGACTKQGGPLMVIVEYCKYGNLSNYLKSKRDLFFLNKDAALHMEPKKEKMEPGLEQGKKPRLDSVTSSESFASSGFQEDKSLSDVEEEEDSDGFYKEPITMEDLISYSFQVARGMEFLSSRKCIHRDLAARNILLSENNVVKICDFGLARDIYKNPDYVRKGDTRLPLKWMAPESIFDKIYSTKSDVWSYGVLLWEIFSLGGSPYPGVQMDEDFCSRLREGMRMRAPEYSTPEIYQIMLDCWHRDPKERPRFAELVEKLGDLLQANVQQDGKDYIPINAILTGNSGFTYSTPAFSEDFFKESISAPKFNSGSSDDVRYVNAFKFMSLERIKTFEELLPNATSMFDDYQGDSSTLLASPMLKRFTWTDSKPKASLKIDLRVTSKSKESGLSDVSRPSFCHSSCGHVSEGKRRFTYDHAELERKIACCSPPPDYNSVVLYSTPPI

| pIC50 | Compound |
| --- | --- |
| 6.70 | CCCc1ccc(NC(=O)c2ccccc2CCc2ccncc2)cc1 [Example 1.1] |

same assay, conditions: FLT-1 kinase, poly-(Glu4Tyr) substrate, 10 minutes at room temperature; read-out: kinase inhibition IC50 VEGFR I (FLT)

| Compound | pIC50 |
| --- | --- |
| O=C(NCC1CCCCC1)c1ccccc1CCc1ccncc1 [Example 1.31] | 6.70 |
| O=C(Nc1ccc(Cl)cc1)c1cccc(C#Cc2cccnc2)c1 [Example 1.54] | 7.30 |
| COc1ccc(/C=C\c2ccccc2C(=O)Nc2cnc3ccccc3c2)cc1 [Example 1.60] | 5.70 |

The remaining lines, values ahead:

| pIC50 | Compound |
| --- | --- |
| 6.70 | COc1ccc(/C=C\c2ccccc2C(=O)Nc2ccc(Cl)cc2)cc1 [Example 1.57] |
| 6.70 | CCCCCCCNC(=O)c1ccccc1/C=C\c1ccc(OC)cc1 [Example 1.64] |
| 5.70 | COc1ccc(CCc2ccccc2C(=O)Nc2cnc3ccccc3c2)cc1 [Example 1.89] |

target: VEGFR II (KDR) (Homo sapiens, UniProt P35968); experiment: Inhibition of KDR kinase activity (33P-ATP, poly-(Glu4Tyr) phosphocellulose filter assay); assay type: biochemical; conditions: poly-(Glu4Tyr) substrate, 10 minutes at room temperature
Procedure: as §1
In a microtiter plate (without protein binding) that tapers to a point, 10 μl of substrate mix (10 μl of volume of ATP stock solution A+25 μCi of g-33P-ATP (about 2.5 μl of stock solution B)+30 μl of poly-(Glu4Tyr) stock solution C+1.21 ml of substrate solvent), 10 μl of inhibitor solution (substances corresponding to the dilutions, 3% DMSO in substrate solvent as a control) and 10 μl of enzyme solution (11.25 μg of enzyme stock solution (KDR or FLT-1 kinase) are added at 4° C. in 1.25 ml of enzyme solution (dilute). It is thoroughly mixed and incubated for 10 minutes at room temperature. Then, 10 μl of stop solution (250 mmol of EDTA, pH 7.0) is added, mixed, and 10 μl of the solution is transferred to a P 81 phosphocellulose filter. Then, it is washed several times in 0.1 M phosphoric acid. The filter paper is dried, coated with Meltilex and measured in a microbeta counter.
The IC50 values are determined from the inhibitor concentration, which is necessary to inhibit the phosphate incorporation to 50% of the uninhibited incorporation after removal of the blank reading (EDTA-stopped reaction).

VEGFR II (KDR), sequence (P35968 20-1356, species assumed): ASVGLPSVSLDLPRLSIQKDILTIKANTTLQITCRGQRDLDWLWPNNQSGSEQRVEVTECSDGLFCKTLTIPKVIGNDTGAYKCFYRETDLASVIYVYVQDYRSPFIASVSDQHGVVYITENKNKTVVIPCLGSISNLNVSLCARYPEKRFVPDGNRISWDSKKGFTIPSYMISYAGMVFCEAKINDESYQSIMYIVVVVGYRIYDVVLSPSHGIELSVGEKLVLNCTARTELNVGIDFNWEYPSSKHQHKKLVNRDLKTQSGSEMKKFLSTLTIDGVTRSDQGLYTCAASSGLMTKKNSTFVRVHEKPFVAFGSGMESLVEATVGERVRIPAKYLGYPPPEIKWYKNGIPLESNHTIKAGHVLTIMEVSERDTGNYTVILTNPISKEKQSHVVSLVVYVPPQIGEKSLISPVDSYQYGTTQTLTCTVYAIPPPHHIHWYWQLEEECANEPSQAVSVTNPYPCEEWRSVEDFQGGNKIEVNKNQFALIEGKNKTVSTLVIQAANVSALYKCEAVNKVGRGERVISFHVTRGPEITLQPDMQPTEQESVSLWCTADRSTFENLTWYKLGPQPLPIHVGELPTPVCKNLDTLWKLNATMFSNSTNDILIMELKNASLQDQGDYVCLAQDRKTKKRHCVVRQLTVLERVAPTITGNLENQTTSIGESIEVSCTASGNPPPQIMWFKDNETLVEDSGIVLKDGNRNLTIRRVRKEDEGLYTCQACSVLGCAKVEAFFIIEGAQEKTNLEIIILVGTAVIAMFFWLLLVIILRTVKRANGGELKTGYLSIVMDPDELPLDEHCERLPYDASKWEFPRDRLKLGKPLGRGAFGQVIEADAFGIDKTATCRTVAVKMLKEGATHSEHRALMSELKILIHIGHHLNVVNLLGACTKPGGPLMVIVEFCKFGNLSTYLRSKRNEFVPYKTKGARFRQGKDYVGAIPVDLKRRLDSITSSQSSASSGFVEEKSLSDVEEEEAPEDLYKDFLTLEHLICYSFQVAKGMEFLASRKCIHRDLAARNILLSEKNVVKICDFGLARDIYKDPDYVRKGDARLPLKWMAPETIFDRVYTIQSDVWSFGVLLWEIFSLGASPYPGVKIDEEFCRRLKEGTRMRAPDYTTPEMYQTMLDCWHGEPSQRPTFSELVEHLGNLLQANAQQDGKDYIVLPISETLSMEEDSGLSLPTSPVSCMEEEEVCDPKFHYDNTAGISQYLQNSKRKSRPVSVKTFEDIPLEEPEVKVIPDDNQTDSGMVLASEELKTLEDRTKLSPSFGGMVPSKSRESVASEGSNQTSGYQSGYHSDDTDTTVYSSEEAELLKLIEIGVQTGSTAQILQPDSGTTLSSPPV

| Compound | pIC50 |
| --- | --- |
| O=C(NCC1CCCCC1)c1ccccc1CCc1ccncc1 [Example 1.31] | 6.40 |
| O=C(Nc1ccc(Cl)cc1)c1cccc(C#Cc2cccnc2)c1 [Example 1.54] | 6.30 |
| COc1ccc(/C=C\c2ccccc2C(=O)Nc2cnc3ccccc3c2)cc1 [Example 1.60] | 6.30 |
| CCCc1ccc(NC(=O)c2ccccc2CCc2ccc(OC)cc2)cc1 [Example 1.67] | 5.30 |

The next molecules have a higher pIC50 than those just listed; values first:

| pIC50 | Compound |
| --- | --- |
| 6.70 | CCCc1ccc(NC(=O)c2ccccc2CCc2ccncc2)cc1 [Example 1.1] |
| 6.70 | COc1ccc(/C=C\c2ccccc2C(=O)Nc2ccc(Cl)cc2)cc1 [Example 1.57] |
| 6.52 | CCCCCCCNC(=O)c1ccccc1/C=C\c1ccc(OC)cc1 [Example 1.64] |
| 6.52 | COc1ccc(CCc2ccccc2C(=O)Nc2cnc3ccccc3c2)cc1 [Example 1.89] |

test system: not given; experiment: not given; conditions: not given

| melting point | Compound |
| --- | --- |
| 105 to 107 °C | O=C(NCC1CCCCC1)c1ccccc1CCc1ccncc1 [Example 1.31] |
| 179 °C | O=C(Nc1ccc(Cl)cc1)c1cccc(C#Cc2cccnc2)c1 [Example 1.54] |
| 137.9 °C | COc1ccc(/C=C\c2ccccc2C(=O)Nc2ccc(Cl)cc2)cc1 [Example 1.57] |
| 113.7 °C | CCCc1ccc(NC(=O)c2ccccc2CCc2ccc(OC)cc2)cc1 [Example 1.67] |
